Measured values reported in ChEMBL document CHEMBL2177036, “Design and validation of bicyclic iminopyrimidinones as beta amyloid cleaving enzyme-1 (BACE1) inhibitors: conformational constraint to favor a bioactive conformation” (J Med Chem, 2012).

Experiments:
[1] = AUC (0 to 6 hrs) in rat at 10 mg/kg po; type: ADME, organism-based; parameters: time < 6 hr, dose 10 mg/kg, route oral; conditions: plasma
[2] = Ratio of drug uptake in brain to plasma in rat at 10 mg/kg, po at 6 hrs; type: ADME, organism-based; parameters: dose 10 mg/kg, route oral; conditions: read-out: BPR
[3] = Drug uptake in rat brain at 10 mg/kg, po at 6 hrs; type: ADME, organism-based; parameters: dose 10 mg/kg, route oral; conditions: read-out: Drug uptake
[4] = test system: Brain; assay: Free drug concentration in rat brain at 10 mg/kg, po at 6 hrs; type: ADME, organism-based; parameters: dose 10 mg/kg, route oral; conditions: in vivo
[5] = Plasma concentration in rat at 10 mg/kg, po at 6 hrs; type: ADME, organism-based; parameters: dose 10 mg/kg, route oral
[6] = Cmax in rat at 10 mg/kg, po at 1 hr; type: ADME, organism-based; parameters: dose 10 mg/kg, route oral; conditions: in vivo
[7] = Cmax in rat at 10 mg/kg, po; type: ADME, organism-based; parameters: dose 10 mg/kg, route oral; conditions: in vivo
[8] = Oral bioavailability in rat at 10 mg/kg; type: ADME, organism-based; conditions: in vivo
[9] = Intrinsic clearance in rat hepatocytes assessed per 10^6 cells; type: ADME, cell-based, Hepatocyte; conditions: read-out: CLH
[10] = Apparent permeability across human Caco2 cells; type: ADME, cell-based; conditions: Caco-2
[11] = AUC (0 to 24 hrs) in rat at 10 mg/kg po; type: ADME, organism-based; parameters: time < 24 hr, dose 10 mg/kg, route oral; conditions: plasma
[12] = Intrinsic clearance in cynomolgus monkey hepatocytes assessed per 10^6 cells; type: ADME, cell-based, Macaca fascicularis, Hepatocyte; conditions: read-out: CLH
[13] = Intrinsic clearance in human hepatocytes assessed per 10^6 cells; type: ADME, cell-based, Hepatocyte; conditions: read-out: CLH
[14] = Clearance in rat hepatocytes assessed per 10^6 cells; type: ADME, cell-based, Hepatocyte; conditions: read-out: CLH

AUC(0-t) at 6 h [1] [µM·h]	Kp at 6 h [2]	concentration at 6 h [3] [nM]	Drug uptake(free) [4] [nM]	also measured	Compound
90	0.1	965	4		CN1C(=N)N[C@@]2(c3cc(-c4cccc(C#N)c4)cs3)CN(c3ncc(Cl)cn3)C[C@H]2C1=O
2	1	58	1	concentration at 6 h [5]: 60 nM; Cmax [6]: 1000 nM	CN1C(=O)[C@@H]2CN(c3ncccn3)C[C@]2(c2cc(-c3cccc(C#N)c3)cs2)N=C1N
0.024					CN1C(=O)[C@@H]2CN(C(=O)c3ccccc3)C[C@]2(c2cc(-c3cccc(C#N)c3)cs2)N=C1N
31	0.1	463	11	Cmax [7]: 6100 nM; bioavailability [8]: 97%; hepatocyte CLint [9]: 13.5 µL/min/1e6 cells; Papp [10]: 15.1 ×10⁻⁶ cm/s; AUC(0-t) at 24 h [11]: 31 µM·h; hepatocyte CLint [12]: 5.7 µL/min/1e6 cells; hepatocyte CLint [13]: 2 µL/min/1e6 cells	CN1C(=N)N[C@@]2(c3cc(-c4cccc(C#N)c4)cs3)CN(c3ncc(F)cn3)C[C@H]2C1=O
3.7					CC#Cc1cncc(-c2csc([C@]34CN(c5cccc(OC(C)C)c5)C[C@H]3C(=O)N(C)C(N)=N4)c2)c1
0.3				hepatocyte CLint [14]: 46 µL/min/1e6 cells	CN1C(=N)N[C@@]2(c3cc(-c4ccc(F)c(C#N)c4)cs3)CN(C(=O)c3cccc(F)c3)C[C@H]2C1=O
111	< 0.1	232			Cc1cnc(N2C[C@H]3C(=O)N(C)C(=N)N[C@@]3(c3cc(-c4cccc(C#N)c4)cs3)C2)nc1
0.3					CC#Cc1cncc(-c2csc([C@]34CN(C(=O)c5cccc(F)c5)C[C@H]3C(=O)N(C)C(N)=N4)c2)c1
